{"source": "paper PMC7647111", "about": "“Antileishmanial compounds from Connarus suberosus: Metabolomics, isolation and mechanism of action” (PLoS ONE, 2020)", "key": {"[1]": {"tested_on": "L. amazonensis promastigotes", "experiment": "Antiproliferation assay: L. amazonensis promastigotes (24 h), resazurin", "type": "cell-based, Leishmania amazonensis (IFLA/BR/1967/PH8)", "details": "Leishmania amazonensis, 24 h of exposure, read-out: IC50", "method": "(§1) Leishmania amazonensis promastigotes (IFLA/BR/1967/PH8) for the 24 h exposure test were cultivated in RPMI 1640, supplemented with 20% v/v heat inactivated fetal bovine serum (FBS) and incubated at 26°C until near the end of the log growth phase. Leishmania amazonensis (IFLA/BR/1967/PH8) and L. infantum (MCAN/BR/2008/1112) promastigotes used in the 72 h exposure test were cultivated in Warren’s medium (containing brain heart infusion- BHI plus hemin and folic acid), supplemented with 10% FBS, 0.1% of the antibiotics: 100 UI/mL penicillin G and 0.1 mg/mL streptomycin. Leishmania amazonensis (IFLA/BR/1967/PH8) transfected with the red fluorescent protein (RFP) gene was cultured in M199 medium (containing 0.1 mmol/L adenine, 40 mmol/L hepes, 0.0005% hemin and 0.0002% biotin), supplemented with 10% FBS, and 0.1% of the antibiotic. Parasites were maintained at 25°C in a BOD incubator.\nExtracts and fractions were tested against L. amazonensis (IFLA/BR/1967/PH8) promastigote cells in a 96-well plate at a concentration of 10^6 cells/well. Each sample was solubilized in DMSO (<1%) since it was not soluble directly in the medium. Extracts were tested at 100 μg/mL and 50 μg/mL. […] Plates were read at 570 nm and 595 nm in a microplate reader (BiochromAsys UVM 340) after cell lysis with sodium dodecyl sulfate (SDS). Viability was calculated based on the equations described by Kulshrestha."}, "[2]": {"tested_on": "L. infantum promastigotes", "experiment": "Antiproliferation assay: L. infantum promastigotes (72 h), MTT", "type": "cell-based, Leishmania infantum (MCAN/BR/2008/1112)", "details": "Leishmania infantum, 72 h, 72 h exposure", "method": "as §1\nExtracts and isolated compounds were tested against L. amazonensis promastigotes (IFLA/BR/1967/PH8 strain - 2x10^5 cells/well) and L. infantum promastigotes (MCAN/BR/2008/1112 strain - 3x10^5 cells/well). The samples were solubilized in DMSO (<1%), serially diluted (100 μg/mL to 1.56 μg/mL) and tested in a 96-well plate to obtain a dose-response curve. Miltefosine and DMSO were used as positive and negative controls, respectively. After 72 h, 10 μL of 3-(4,5-dimethylthiazol-2-yl)-2,5-diphenyl tetrazolium bromide (5 mg/mL—MTT, Sigma-Aldrich) solution was added to each well and the plate returned to the incubator for an additional 4 h. To halt the reaction, 100 μL acidified isopropanol was added to each well. Plates were read at 570 nm in a microplate reader (Multiskan MS, LabSystems Oy, Helsinki, Finland)."}, "L. infantum amastigotes": {"tested_on": "L. infantum amastigotes", "experiment": "L. infantum amastigotes assay (Giemsa, infection index)", "type": "cell-based, Leishmania infantum", "method": "Peritoneal macrophages (6 x 10^5 cells) were plated on round glass coverslips within 24-well plates in RPMI 1640 medium supplemented with FBS and 20 mM L-glutamine, pH 7.2, and incubated for 24 h at 37°C in 5% CO2. Stationary-phase promastigotes (6 x 10^6 cells, at a ratio of 10 parasites per macrophage) were then added to the wells, and cultures incubated for 24 h at 37°C in 5% CO2. Non-internalized parasites were removed by extensive PBS solution washing and infected macrophages subsequently treated with nontoxic concentrations of: compound 3 (6.25 μg/mL to 0.18 μg/mL) or miltefosine (10.0 μg/mL to 0.6 μg/mL, positive control) for 72 h at 37°C in 5% CO2. After compound exposure, cells were fixed with absolute ethanol and stained with Giemsa. A total of 200 macrophages were counted under a light microscope. The infection index was determined by the […] percentage of infected macrophages multiplied by the mean number of amastigotes per macrophage out of 200 macrophages."}, "Cytotoxicity assay (MTT)": {"experiment": "Cytotoxicity assay (MTT)", "type": "cell-based, BALB/c mice", "details": "female, BALB/c, mouse, murine peritoneal macrophages; 72 h exposure", "method": "Female BALB/c mice pre-inoculated with 3% thioglycollate medium were used to obtain macrophages from the peritoneal cavity. Peritoneal exudate was collected 72 h post-inoculation using cold Hank´s Balanced Salt Solution and the assay performed as previously reported. Briefly, peritoneal macrophages in RPMI 1640 medium were transferred to a 96-well plate (2x10^5 cells/well) and incubated at 37°C in 5% CO2 for 24 h to allow adhesion. Samples were serially diluted (100 μg/mL to 0.78 μg/mL), added to the plate with the cells and incubated under the same conditions for 72 h. MTT (10 μL/well) was subsequently added and the plates re-incubated for a further 2 h. To halt the reaction, 100 μL of acidified isopropanol was added to each well. The plate was then read at 570 nm in a microplate reader (Multiskan MS, LabSystems Oy, Helsinki, Finland)."}, "[3]": {"tested_on": "L. amazonensis promastigotes", "experiment": "Reactive oxygen species (ROS) detection (H2DCFDA)", "type": "cell-based, Leishmania amazonensis", "details": "24 h; 2 at 33.8 μM, 3 at 11.4 μM", "method": "Fluorescence intensity was detected using a fluorimetric microplate reader (FLx800, BioTek Instruments, Inc., Winooski, VT, USA), at 485/528 nm excitation/emission. Promastigotes incubated with miltefosine (44.2 μM) were used as a positive control."}, "[4]": {"tested_on": "L. amazonensis promastigotes", "experiment": "Cell membrane integrity (propidium iodide)", "type": "cell-based, Leishmania amazonensis", "details": "24 h; 2 at 33.8 μM, 3 at 11.4 μM", "method": "Plates were incubated with propidium iodide (PI) (1.0 μg/mL—Sigma-Aldrich, USA, St. Louis, MO, USA) for 15 min in the dark at RT. Fluorescence was measured using a spectrofluorometer (FLx800, BioTek Instruments, Inc., Winooski, VT, USA) with 540/600 nm excitation/emission. Parasites heated at 65 °C were used as the positive control."}, "[5]": {"tested_on": "L. amazonensis promastigotes", "experiment": "Transmission electron microscopy (TEM)", "type": "cell-based, Leishmania amazonensis", "details": "11.4 μM, 24 h", "method": "Leishmania amazonensis promastigotes (10^7 cells/mL) were treated with compound 3 (11.4 μM) or incubated with controls (medium alone or medium plus 0.01% DMSO) for 24 h at 26°C. The parasites were subsequently washed in PBS, fixed in 2.5% glutaraldehyde (in 0.1 M sodium cacodylate buffer) at pH 7.2 for 45 min at room temperature. After fixation, the specimens were washed three times successively with 0.1 M sodium cacodylate buffer, and postfixed in 1% osmium tetroxide, 0.8% potassium ferricyanide, and 5 mM of the CaCl2 in 0.1 M of the sodium cacodylate buffer (0.1 M, pH 7.2). Dehydration was performed in acetone, followed by the embedding resin (Spur, Sigma-Aldrich®). Ultrathin sections were contrasted with uranyl acetate and lead citrate and observed under a transmission electron microscope (JEOL 1011)."}}, "note": "Values joined by “and” are separate entries in the source; they are usually repeats but may differ in a detail not shown here. Identical values can stand only once."}
{"smiles": "C=C[C@@H](c1cc(CC=C(C)C)ccc1O)c1cc(CC=C(C)C)c(OC)cc1O", "note": "[Compound 3, connarin]", "values": [{"measurement": "IC50", "setting": "[1]", "value": 20.5, "unit": "µM"}, {"measurement": "IC50", "setting": "[2]", "value": "5.2 µg/mL and 13.3 µM"}, {"measurement": "SI (Selectivity Index)", "setting": "L. infantum amastigotes; L. infantum amastigotes", "value": 2.4}, {"measurement": "IC50", "setting": "L. infantum amastigotes; Leishmania infantum, intracellular, 72 h", "value": 7.7, "unit": "µM"}, {"measurement": "CC50 at 72 h", "setting": "Cytotoxicity assay (MTT)", "value": "7.2 µg/mL and 18.3 µM"}, {"measurement": "ROS level", "setting": "[3]", "value": "no alteration in the ROS level"}, {"measurement": "plasma membrane integrity (PI-positive parasites)", "setting": "[4]", "value": "did not interfere with plasma membrane permeation"}, {"measurement": "ultrastructural modification (TEM)", "setting": "[5]", "value": "showed lipid bodies and the presence of vacuoles"}]}
